From patent US20020094992A1, “Intermittent administration of a growth hormone secretagogue” (priority 2000, published 2002)

Key:
[1] = Solubility and osmotic pressure of the active compound; type: physicochemical
[2] = tested on: male and female subjects between the ages of 65 and 84 years, baseline IGF-1 <150 ng/ml; assay: Clinical study, extension study (CR, CR+IR, daily or every third day): IGF-I, GH peaks, body composition; type: in vivo, human
Description: (§1) This clinical study was performed in male and female subjects between the ages of 65 and 84 years inclusive, and whose baseline IGF-1 levels were <150 ng/ml.
(§2) The study was a double blind, parallel group, placebo-controlled study.
In addition, an extension study was conducted to evaluate the relationship between peak GH concentrations or IGF-I versus surrogate responses such as lipid concentrations and body composition. A controlled release (CR) formulation was also evaluated, either alone or combined with an immediate release (IR) formulation (24-30 patients per group). [16mg (10 CR, 6 IR) h.s.( h.s. means at bedtime); 16 mg (10 CR, 6 IR) h.s. every third day; 16 mg CR h.s.; and placebo.] The formulations are set forth below.
In the extension study, 2-amino-N-[2-(3a-(R)-benzyl-2-methyl-3-oxo-2,3,3a,4,6,7-hexahydro-pyrazolo[4,3-c]pyridin-5-yl)-1-(R)-benzyloxymethyl-2-oxo-ethyl]-isobutyramide L-tartrate was supplied as 10 mg or 3 mg controlled release tablets and 3 mg immediate release tablets, with matching placebo tablets. Study active compound was supplied in blisterpaks, with five tablets to be taken at time of each dosing. Subjects were instructed to take the tablets with one glass of water at bedtime.
(§3) Return visits were scheduled at 1, 2, and 4 weeks after baseline. A blood sample for 2-amino-N-[2-(3a-(R)-benzyl-2-methyl-3-oxo-2,3,3a,4,6,7-hexahydro-pyrazolo[4,3-c]pyridin-5-yl)-1-(R)-benzyloxymethyl-2-oxo-ethyl]-isobutyramide L-tartrate and IGF-1 levels was obtained at each visit. The baseline and all subsequent follow-up visits were performed at the same time of day (between approximately 8-11 am).
In addition to this schedule, subjects at selected sites in the extension study were studied during two overnight admissions on the first night of dosing and again on day 28 of dosing. Growth hormone secretion and pharmacokinetic sampling was carried out.
(§4) A follow-up evaluation was made at 1, 2, and 4 weeks. Vital signs were obtained and the skin of the face, trunk and upper extremities was inspected. A blood sample was obtained for measurement of GH and IGF-1, and for measurement of plasma concentrations of 2-amino-N-[2-(3a-(R)-benzyl-2-methyl-3-oxo-2,3,3a,4,6,7-hexahydro-pyrazolo[4,3-c]pyridin-5-yl)-1-(R)-benzyloxymethyl-2-oxo-ethyl]-isobutyramide L-tartrate.
In addition, subjects at selected study centers were admitted to an overnight unit on day 28 of dosing. Growth hormone secretion profile, pharmacokinetics, and vital sign determination were carried out.
(§5) The primary efficacy endpoint was the percentage change from baseline in IGF-1. Secondary outcomes included insulin-like growth factor binding protein 3 (IGIFBP-3), cholesterol subfractions, and percent changes in total adipose and total lean tissue. Changes in each of the secondary efficacy measures over time were examined systematically either graphically or in tabular form and summarized using appropriate descriptive statistics as is well known in the art.

[3] = tested on: male and female subjects between the ages of 65 and 84 years, baseline IGF-1 <150 ng/ml; assay: Clinical study, first leg (immediate release dosage forms): IGF-1, IGFBP-3, body composition; type: in vivo, human
Description: as §1, §2
In the first leg of the study, the safety and efficacy of 2-amino-N-[2-(3a-(R)-benzyl-2-methyl-3-oxo-2,3,3a,4,6,7-hexahydro-pyrazolo[4,3-c]pyridin-5-yl)-1-(R)-benzyloxymethyl-2-oxo-ethyl]-isobutyramide L-tartrate was studied in 4 groups of approximately 24 subjects at doses of 0 mg (placebo), 1 mg tid, 3 mg tid and 3 mg am and 6 mg pm. (All dosage forms in this part of the study were immediate release dosage forms.)
as §3, §4, §5

[4] = two groups receiving IR formulation

CN1N=C2CCN(C(=O)[C@@H](COCc3ccccc3)NC(=O)C(C)(C)N)C[C@@]2(Cc2ccccc2)C1=O.O=C(O)C(O)C(O)C(=O)O [2-amino-N-[2-(3a-(R)-benzyl-2-methyl-3-oxo-2,3,3a,4,6,7-hexahydro-pyrazolo[4,3-c]pyridin-5-yl)-1-(R)-benzyloxymethyl-2-oxo-ethyl]-isobutyramide L-tartrate]
osmotic pressure [1]: about 4 atmospheres
pH dependence of solubility ([1]; this GHSEC is a base): generally higher at acidic pH
solubility ([1]; water): > 150 mg/mL
attenuation of GH peaks ([2]; Q 3 day group compared with daily group): less attenuation
average GH peaks ([2]; group receiving CR alone, after 4 weeks): < 2 ng/mL
average GH peaks ([2]; group receiving CR alone, at baseline (first night of dosing)): less than 4 ng/ml
average GH peaks ([2]; groups receiving 6 mg IR (with 10 mg CR), at baseline): ≥ 15 ng/mL
average GH peaks ([2]; groups receiving 6 mg IR (with 10 mg CR), by 4 weeks): 4 to 6 ng/mL
GH peak height, Q 3 day group greater than QD group ([2]; on average): 1.52 ng/mL
average rise of IGF-I ([2]; remaining group, apparently 16 mg (10 CR, 6 IR) h.s. every third day): approximately 10%
IGF-I ([2]; the 2 groups dosed daily (16 mg CR h.s., 16 mg (10 CR, 6 IR) h.s.)): increases
adipose tissue [2, 4]: corresponding reductions
increases in lean tissue [2, 4]: 0.5-0.6%
IGF-1 dose relation ([3]; 0 mg, 1 mg tid, 3 mg tid, 3 mg am and 6 mg pm): dose related increase
increase in IGF-1 ([3]; both groups administered 9 mg daily (3 mg tid; 3 mg am and 6 mg pm), immediate release): approximately 35%
IGFBP3 ([3]; first leg): increased
changes in body composition ([3]; first leg, small changes): decreased adipose tissue and increased apparent whole body lean mass
